The source of these data is the NIST ThermoML archive (doi:10.1016/j.tca.2015.05.002).

The nature of data set [1]: Molar enthalpy of transition or fusion. The settings on record: DSC.
For data set [2] the following is noted: DTA.

Numbers after ± are expanded uncertainties.

Consider `CCCCC(=O)[O-].CCCCC(=O)[O-].CCCCC(=O)[O-].[La+3]` [lanthanum(III) pentanoate], for which the figures for the “Molar enthalpy of transition or fusion” value in data set [1] (Crystal 1) and in data set [1] (Smectic liquid crystal) were 1.69 ± 0.136 kcal/mol and 0.717 ± 0.127 kcal/mol, respectively. In addition, the Triple point temperature in data set [2] (Crystal 1) is 410.95 ± 10 K; in data set [2] (Crystal 2), 366.15 ± 10 K; in data set [2] (Smectic liquid crystal), 451.65 ± 10 K.

With `CCCCCC(=O)[O-].CCCCCC(=O)[O-].CCCCCC(=O)[O-].[La+3]` [lanthanum(III) hexanoate], the “Molar enthalpy of transition or fusion” value in data set [1] (Crystal 1) worked out at 1.1 ± 0.129 kcal/mol; in data set [1] (Crystal 2) it was 1.49 ± 0.134 kcal/mol; in data set [1] (Smectic liquid crystal) it was 0.32 ± 0.124 kcal/mol. The Triple point temperature in data set [2] (Crystal 1) worked out at 406.85 ± 10 K; in data set [2] (Crystal 2), 380.45 ± 10 K; in data set [2] (Smectic liquid crystal) it was 459.05 ± 0.5 K.
